Four compounds from article PMC4929710, “Specificity and mechanism of action of alpha-helical membrane-active peptides interacting with model and biological membranes by single-molecule force spectroscopy” (Scientific Reports, 2016) can be followed below.

Where two headings read alike, the source gives them in different places.

Data set [1] relates to 3T3-L1 cells. In kind it is cell-based, mouse. The conditions noted are these: 24 h. As for the experimental part: (§1) The MTT cell proliferation assay was used to investigate the anticancer activity and cytotoxicity of MAPs against cancer cell lines (HeLa, A549, SGC-7901, and B16) and normal cells (3T3-L1), respectively. Cells (5 × 10^3) were seeded in 96-well plates and incubated overnight. The peptide samples were then added to cells with final concentrations ranging from 1 μM to 125 μM. After 24 h, 20 μL of 5 mg/mL MTT solution in PBS was added to the cells and treated for 4 h at 37 °C. The formazan crystals were dissolved by 150 μL of dimethyl sulfoxide (DMSO). Finally, the absorbance was determined at 492 nm. The results were expressed as IC50, representing the concentration at which cell viability was reduced by 50%. All assays were repeated in triplicate.

The test system of data set [2] is B16 cells. In kind it is cell-based, mouse. As to conditions: 24 h. How it is done:
as §1

The subject of data set [3] is HeLa cells. Description: Single-molecule force spectroscopy (AFM). In kind it is binding, human. As to conditions: RMS ± SD; N-terminal Cys peptide on AFM tip via PEG linker. From the text:
Based on the above results, five selected peptides of V13L, A12L/A20L, V13K, V13E, and L6A/L17A, with different hydrophobicity and charges were used to examine the interaction probabilities and forces between peptides and membranes, both on the lipid model membranes and on the biological membranes by SMFS based on AFM, respectively. A cysteine residue was covalently introduced to the N-terminus of peptides and provided a free sulfhydryl group to modify the tips of the AFM. A PEG linker was used since each heterobifunctional PEG–NHS linker (approximately 20 nm) can only covalently connect with a single peptide molecule, which guarantees a single-molecule interaction between MAPs and biological membranes in real time[19]. If an AFM tip was functionalized with two or more peptides, where several peaks were recorded. In the reports, data with two peaks were not collected and calculated. For one force–distance cycle, one peptide-functionalized AFM tip approached the model and biological membranes right on the top, and the subsequent tip was withdrawn from the cell membranes to retrace the process. […] In addition, blocking experiment was used to test the specificity of these force events. As the electrostatic attraction is one important reason for peptides approaching model membranes and biological membranes, the Tris-HCl buffer including plenty amino groups[20] was injected into the working chamber and inhibits the interactions between MAPs and model membranes/biological membranes. […] The unbinding forces of V13L against different model membranes and biological membranes with the loading rate of 1 × 10^5 pN s^−1 are shown in Fig. 3c,f–h,j–l.
The AFM tip was first washed with concentrated sulfuric acid and hydrogen peroxide (3:1, v:v). The tip was dried using ozone (O3) for 15 min and dried overnight in a dryer. The tip was then modified with APTES under an argon atmosphere and the peptide connected with a PEG–NHS linker. Finally, the AFM tip linked with the peptide was washed three times in PBS and kept at 4 °C. A 500-μL LUV suspension was deposited on Lys coated glass and the LUVs were absorbed on the surface for 1 h at 65 °C [9][29]. A. laidlawii was deposited on poly-L-lysine coated glass and absorbed for 1 h at 37 °C [30]. The 3T3-L1 and HeLa cells were cultured on glass slides in Dulbecco’s modified Eagle’s medium (DMEM). Before performing force spectroscopy experiments, the cells were washed with fresh DMEM three times to remove the cell metabolites. Isolation of chicken erythrocytes was carried out at room temperature. Then the erythrocytes were washed three times in 2 mL PBS buffer by centrifuge (1,000 rpm) and resuspended in PBS buffer. 200 μL erythrocyte suspension were deposited onto poly-L-lysine coated glass for 20 min[10]. […]

Data set [4] in a line: RP-HPLC retention time (peptide hydrophobicity). In kind it is physicochemical. The conditions noted are these: used as measure of peptide hydrophobicity. As for the experimental part: All peptides were synthesized by solid-phase peptide synthesis using Fmoc (9-fluorenyl-methoxycar-bonyl) chemistry and rink amide 4-methylbenzhydrylamine resin (MBHA resin; 0.8 mmol/g), as described previously. The crude peptides were purified on a LC-6A preparative reversed-phase high performance liquid chromatography (RP-HPLC, Shimadzu, Kyoto, Japan) using a Zorbax 300 SB-C8 column (250 × 9.4 mm inner diameter, […] particle size, 300 Å pore size), as described previously. The purity of the peptides was characterized by analytical RP-HPLC, mass spectrometry, and amino acid analysis.

The subject of data set [5] is PC/PG (7:3 w/w) LUVs. In words: Tryptophan fluorescence with LUVs. In kind it is binding. The conditions noted are these: PC/PG (7:3 w/w) LUVs versus HEPES buffer, 25 °C. From the text: In order to investigate the interaction between peptides and difference types of cell membranes, three different LUVs were used to mimic a prokaryotic cell membrane (PC/PG), a normal eukaryotic cell membrane (PC/Chol), and a cancer cell membrane (PC/SM/PE/PS/Chol). Tryptophan residue in the peptide sequence was used as a fluorescent probe to examine the interaction of peptides with model membranes. […] For example, in the PC/PG (7:3 w/w) anionic prokaryotic mimicking model membrane, peptides V13L and A12L/A20L had the strongest hydrophobicity with blue shift values of approximately 37 nm and 38 nm, respectively. Conversely, peptide V13E with a negative charge of glutamic acid residue, and peptide L6A/L17A with the lowest hydrophobicity had blue shift values of approximately 18 nm and 17 nm, respectively. […] In addition, within PC/SM/PE/PS/Chol (4.35:4.35:1:0.3:1 w/w) as a cancer-mimicking model membrane, the same results could be obtained in that peptide hydrophobicity correlates with anticancer activity and the blue shift values of peptides.
In accordance with previously described methods, LUVs were prepared with PC/PG (7:3 w/w), PC/Chol (8:1 w/w), and PC/SM/PE/PS/Chol (4.35:4.35:1:0.3:1 w/w) to mimic prokaryotic cell, […], membranes, respectively. Lipids using the freeze-thaw method as described previously, followed by extrusion through […] double-stacked nuclepore filters using an Mini-Extruder (Avanti Polar Lipids, Inc.)[11][27].
Three kinds of LUVs were prepared and cultured in HEPES buffer (pH 7.4, 10 mM HEPES, 150 mM NaCl) and the molar concentration was adjusted to 100 μM. A total of 14 μL of 100 μM MAPs was mixed with 686 μL of 100 μM liposomes at 25 °C for 10 min. A Shimadzu RF-5301PC, (excitation wavelength of […], emission wavelength of 300–450 nm) was used to measure the tryptophan fluorescence. Potassium iodide (KI) as a quencher was added to the previous reaction system for a final concentration of 0.02–0.08 M, respectively. The experimental data were plotted according to the Stern–Volmer equation F0/F = 1 + Ksv[Q], where F0 and F are the fluorescence intensity in the absence or presence of a quencher at concentration [Q], respectively, and Ksv is the Stern–Volmer quenching constant.

The mark [6] stands for this setting: normal cells, MTT, 1-125 μM, triplicate, read-out: IC50 3T3-L1.
The mark [7] stands for this setting: MTT, 1-125 μM, triplicate, read-out: IC50 B16.

For orientation: IC50 means the point on the concentration scale where inhibition reaches its midpoint. For the compound `CC[C@H](C)[C@H](NC(=O)[C@H](C)NC(=O)[C@H](CCCCN)NC(=O)[C@H](CC(C)C)NC(=O)[C@H](C)NC(=O)[C@@H](NC(=O)[C@H](Cc1cnc[nH]1)NC(=O)[C@H](CC(C)C)NC(=O)[C@@H](NC(=O)[C@@H](NC(=O)[C@H](CCCCN)NC(=O)[C@H](CCCCN)NC(=O)[C@H](C)NC(=O)[C@H](CO)NC(=O)[C@H](CCCCN)NC(=O)[C@H](Cc1ccccc1)NC(=O)[C@@H](NC(=O)[C@H](CCCCN)NC(=O)[C@H](CC(C)C)NC(=O)[C@H](Cc1ccccc1)NC(=O)[C@H](CO)NC(=O)[C@H](CCCCN)NC(=O)[C@H](Cc1c[nH]c2ccccc12)NC(=O)[C@H](CCCCN)NC(C)=O)[C@@H](C)O)[C@@H](C)O)C(C)C)[C@@H](C)O)C(=O)N[C@@H](CO)C(=O)N[C@@H](CO)C(N)=O` [Peptide V13K], the IC50 in data set [1] (setting [6]) is 26.2 µM; in data set [2] (setting [7]) it was 11.9 µM. Besides, the “Unbinding force HeLa” value in data set [3] stood at 52 ± 20 pN. The “tR (RP-HPLC retention time)” value in data set [4] was found to be 38.790 min. Besides, the “PC/PG Blue shift” value in data set [5] came to 28 nm.
Take “Ac-KWKSFAKTFKSAKKTVAHTALKAISS-NH2 [L6A/L17A]”: the IC50 in data set [1] (setting [6]) and in data set [2] (setting [7]) was > 125 µM in each case. Also, in data set [3], the “Unbinding force HeLa” value is recorded as 39 ± 11 pN. Further, in data set [4], the “tR (RP-HPLC retention time)” value amounted to 32.210 min. The “PC/PG Blue shift” value in data set [5] was ~17 nm.
Consider “Ac-KWKSFLKTFKSAEKTVLHTALKAISS-NH2 [Peptide V13E]”, for which the IC50 in data set [1] was > 125 µM; in data set [2] it was 120 µM. Moreover, the “Unbinding force HeLa” value in data set [3] came out at 36 ± 14 pN. The “tR (RP-HPLC retention time)” value in data set [4] was 44.290 min.
On to “Ac-KWKSFLKTFKSALKTVLHTALKAISS-NH2 [Peptide V13L]”, for which the IC50 in data set [1] was 6.55 µM; in data set [2] it was 3.51 µM. Besides, the “Unbinding force HeLa” value in data set [3] worked out at 31 ± 10 pN. Besides, in data set [4], the “tR (RP-HPLC retention time)” value is listed as 53.177 min.
